Counter-ions that a name gives are not always drawn.
Legend:
[1] = test system: human umbilical vein endothelial cells (HUVEC); experiment: HUVEC proliferation assay; assay type: cell-based; settings: Homo sapiens, HUVEC
Summary of the method: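 Readout was MTT dye reduction (A595) after 72 h of stimulation with VEGF at 6 ng/ml final. Compound, in 0.1% DMSO final, was added 1 h before VEGF to HUVEC starved 24 h in 1% FBS. % inhibition was scaled between VEGF-alone and unstimulated wells; IC50 was fitted from triplicate dose curves.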

[2] = biological target: T1, phosphorylated VEGF-R2Δ50 (FLVK-P) (Homo sapiens, UniProt P35968, DEL940-989/E990V); experiment: VEGF-R2 coupled spectrophotometric (FLVK-P) assay; assay type: biochemical; settings: for Ki: spectrophotometric assay; for inhibition at 1 µM: Table 3; for FLVK-P % inhibition @ 50: at 50, concentration unit not printed (head nM)
T1 construct: VEGF-R2Δ50 contains residues 806-939 and 990-1171; made in house; host or cells: baculovirus/insect cells
Source text: VEGF-R2 Construct for Assay: This construct determines the ability of a test compound to inhibit tyrosine kinase activity. A construct (VEGF-R2Δ50) of the cytosolic domain of human vascular endothelial growth factor receptor 2 (VEGF-R2) lacking the 50 central residues of the 68 residues of the kinase insert domain was expressed in a baculovirus/insect cell system. Of the 1356 residues of full-length VEGF-R2, VEGF-R2Δ50 contains residues 806-939 and 990-1171, and also one point mutation (E990V) within the kinase insert domain relative to wild-type VEGF-R2. Autophosphorylation of the purified construct was performed by incubation of the enzyme at a concentration of 4 μM in the presence of 3 mM ATP and 40 mM MgCl2 in 100 mM Hepes, pH 7.5, containing 5% glycerol and 5 mM DTT, at 4° C. for 2 h. […] See Parast et al., Biochemistry, 37, 16788-16801 (1998).
Coupled Spectrophotometric (FLVK-P) Assay
The production of ADP from ATP that accompanies phosphoryl transfer was coupled to oxidation of NADH using phosphoenolpyruvate (PEP) and a system having pyruvate kinase (PK) and lactic dehydrogenase (LDH). The oxidation of NADH was monitored by following the decrease of absorbance at 340 nm (e340=6.22 cm^−1 mM^−1) using a Beckman DU 650 spectrophotometer. Assay conditions for phosphorylated VEGF-R2Δ50 (indicated as FLVK-P in the tables below) were the following: 1 mM PEP; 250 μM NADH; 50 units of LDH/mL; 20 units of PK/mL; 5 mM DTT; 5.1 mM poly(E4Y1); 1 mM ATP; and 25 mM MgCl2 in 200 mM Hepes, pH 7.5. Assay conditions for unphosphorylated VEGF-R2Δ50 (indicated as FLVK in the tables) were the following: 1 mM PEP; 250 μM NADH; 50 units of LDH/mL; 20 units of PK/mL; 5 mM DTT; 20 mM poly(E4Y1); 3 mM ATP; and 60 mM MgCl2 and 2 mM MnCl2 in 200 mM Hepes, pH 7.5. Assays were initiated with 5 to 40 nM of enzyme. Ki values were determined by measuring enzyme activity in the presence of varying concentrations of test compounds. The data were analyzed using Enzyme Kinetic and Kaleidagraph software.

T1 sequence (P35968 with tags, fused parts or gaps DEL940-989/E990V limits assumed): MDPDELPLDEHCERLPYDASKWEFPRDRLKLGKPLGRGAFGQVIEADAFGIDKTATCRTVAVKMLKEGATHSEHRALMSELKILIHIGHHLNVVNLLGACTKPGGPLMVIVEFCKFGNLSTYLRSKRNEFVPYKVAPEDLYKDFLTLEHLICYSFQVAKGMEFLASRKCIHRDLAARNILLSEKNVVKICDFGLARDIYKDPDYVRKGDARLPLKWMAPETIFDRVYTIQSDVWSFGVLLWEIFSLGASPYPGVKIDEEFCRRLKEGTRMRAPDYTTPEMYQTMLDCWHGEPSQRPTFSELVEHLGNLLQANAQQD

CNC(=O)Nc1nc(N)c(-c2nc(-c3cccc(NC(=O)c4cccc(C)c4)c3)no2)s1 [F(8), N-(3-[5-[4-Amino-2-(3-methyl-ureido)-thiazol-5-yl]-[1,2,4]oxadiazol-3-yl}-phenyl)-3-methyl-benzamide]
IC50 ([1]; Table 1): 22 nM | Ki ([2]; Table 1): 1.9 nM

CC(C)(C)OC(=O)Nc1cccc(-c2noc(-c3sc(Nc4cccc(C#N)c4)nc3N)n2)c1 [B(40)]
inhibition at 1 µM [2]: 31%

CCC(=O)Nc1nc(N)c(-c2nc(-c3cccc(NC(=O)c4cccc(Cl)c4)c3)no2)s1 [F(6), N-{3-[5-(4-Amino-2-propionylamino-thiazol-5-yl)-[1,2,4]oxadiazol-3-yl]-phenyl}-3-chloro-benzamide]
FLVK-P % inhibition @ 50 ([2]; Table 1): 34% @

CC(=O)Nc1nc(N)c(-c2nc(-c3cccc(NC(=O)c4cccc(Cl)c4)c3)no2)s1 [F(4), N-{3-[5-(2-Acetylamino-4-amino-thiazol-5-yl)-[1,2,4]oxadiazol-3-yl]-phenyl}-3-chloro-benzamide]
FLVK-P % inhibition @ 50 ([2]; Table 1): 33% @

COc1cc(Nc2nc(N)c(-c3nc(-c4cccc(NC(=O)c5ccc(F)cc5)c4)cs3)s2)cc(OC)c1OC [D(28), N-{3-[4′-Amino-2′-(3,4,5-trimethoxy-phenylamino)-[2,5′]bithiazolyl-4-yl]-phenyl}-4-fluoro-benzamide]
Ki ([2]; Table 1): 6 nM

COCOc1cccc(-c2noc(-c3sc(Nc4cc(OC)c(OC)c(OC)c4)nc3N)n2)c1 [B(4), 5-[3-(3-Methoxymethoxy-phenyl)-[1,2,4]oxadiazol-5-yl]-N^2-(3,4,5-trimethoxy-phenyl)-thiazole-2,4-diamine]
Ki ([2]; Table 2): 200 nM

COc1cc(Nc2nc(N)c(-c3nc(-c4cccc(NC(=O)c5cnc(C)s5)c4)cs3)s2)cc(OC)c1OC [D(53), 2-Methyl-thiazole-5-carboxylic acid {3-[4′-amino-2′-(3,4,5-trimethoxy-phenylamino)-[2,5′]bithiazolyl-4-yl]-phenyl}-amide]
Ki ([2]; Table 1): 2.5 nM

COc1cc(Nc2nc(N)c(C3=NC(c4ccc(O)cc4)CO3)s2)cc(OC)c1OC (stereo not drawn) [I(11), S-4-{2-[4-Amino-2-(3,4,5-trimethoxy-phenylamino)-thiazol-5-yl]-4,5-dihydro-oxazol-4-yl}-phenol]
Ki ([2]; Table 2): 530 nM

COc1cc(Nc2nc(N)c(-c3nc(-c4cccc(NC(=O)c5ccc(C)c(C)c5)c4)cs3)s2)cc(OC)c1OC [D(31), N-{3-[4′-Amino-2′-(3,4,5-trimethoxy-phenylamino)-[2,5′]bithiazolyl-4-yl]-phenyl}-3,4-dimethyl-benzamide]
Ki ([2]; Table 1): 4.8 nM

COc1cc(Nc2nc(N)c(-c3nc(-c4cccc(NS(=O)(=O)Cc5ccccc5)c4)cs3)s2)cc(OC)c1OC [D(2), N-{3-[4′-Amino-2′-(3,4,5-trimethoxy-phenylamino)-[2,5′]bithiazolyl-4-yl]-phenyl}-C-phenyl-methanesulfonamide]
Ki ([2]; Table 1): 98 nM

COc1cc(Nc2nc(N)c(C3=NC(c4ccc5ccccc5c4)CO3)s2)cc(OC)c1OC (stereo not drawn) [I(20)]
inhibition at 100 µM ([2]; Table 2, at 100 μM): 46%

COc1cc(Nc2nc(N)c(-c3nc(-c4cccc(NC(=O)c5ccnc(Cl)c5)c4)cs3)s2)cc(OC)c1OC [D(55), N-{3-[4′-Amino-2′-(3,4,5-trimethoxy-phenylamino)-[2,5′]bithiazolyl-4 yl]-phenyl}-2-chloro-isonicotinamide]
Ki ([2]; Table 1): 6.3 nM

Nc1nc(NC(=O)c2cccs2)sc1-c1nc(-c2cccc(NC(=O)c3cccc(Cl)c3)c2)no1 [F(5), Thiophene-2-carboxylic acid (4-amino-5-{3-[3-(3-chloro-benzoylamino)-phenyl]-[1,2,4]oxadiazol-5-yl}-thiazol-2-yl)-amide]
FLVK-P % inhibition @ 50 ([2]; Table 1): 31% @

COC(=O)Nc1nc(N)c(-c2nc(-c3cccc(NC(=O)c4ccc(Cl)s4)c3)cs2)s1 [F(3), (4′-Amino-4-{3-[(5-chloro-thiophene-2-carbonyl)-amino]-phenyl}-[2,5′]bithiazolyl-2′-yl)-carbamic acid methyl ester]
Ki ([2]; Table 1): 80 nM

COc1cc(Nc2nc(N)c(C3=N[C@@H](Cc4ccccc4)CO3)s2)cc(OC)c1OC [I(1), S-5-(4-Benzyl-4,5-dihydro-oxazol-2-yl)-N^2-(3,4,5-trimethoxyl-pheny)-thiazole-2,4-diamine]
IC50 ([1]; Table 2): 61000 nM | Ki ([2]; Table 2): > 100000 nM

Nc1nc(NC(=O)c2ccccc2)sc1-c1nc(-c2cccc(NC(=O)c3cccc(Cl)c3)c2)no1 [F(7), N-{3-[5-(4-amino-2-benzoylamino-thiazol-5-yl)-[1,2,4]oxadiazol-3-yl]-phenyl}-3-chloro-benzamide]
Ki ([2]; Table 1): 114 nM

COc1cc(Nc2nc(N)c(-c3nc(-c4cccc(NC(=O)c5cc(C)cc(C)c5)c4)no3)s2)cc(OC)c1OC [D(56), N-(3-{5-[4-Amino-2-(3,4,5-trimethoxy-phenylamino)-thiazol-5-yl]-[1,2,4]oxadiazol-3-yl}-phenyl)-3,5-dimethyl-benzamide trifluoroacetate salt]
Ki ([2]; Table 1): 0.81 nM

N#Cc1cccc(Nc2nc(N)c(-c3nc(-c4cccc(NC(=O)c5cccc(Cl)c5)c4)no3)s2)c1 [D(78)]
inhibition at 1 µM [2]: 9%

COc1cc(Nc2nc(N)c(C3=NC(c4ccc(Br)cc4)CO3)s2)cc(OC)c1OC (racemic) [I(12), (R/S)-5-[4-(4-Bromo-phenyl)-4,5-dihydro-oxazol-2-yl]-N^2-(3,4,5-trimethoxy-phenyl)-thiazole-2,4-diamine]
FLVK-P % inhibition @ 20 ([2]; Table 2, at 20 (head μM)): 71% @

Reference: patent US6620828B2, “Thiazole compounds and pharmaceutical compositions for inhibiting protein kinases and methods for their use” (Agouron Pharmaceuticals, Inc., priority 1999, dated 2003)
